Measured values reported in article doi:10.1101/2020.09.06.284752v1 (biorxiv, 2020).

How the values were obtained:
[1] = target: T1, recombinant human PFKM (Homo sapiens, UniProt P08237); assay: PFKM enzymatic activity inhibition; format: biochemical
T1 sequence (P08237 2-780): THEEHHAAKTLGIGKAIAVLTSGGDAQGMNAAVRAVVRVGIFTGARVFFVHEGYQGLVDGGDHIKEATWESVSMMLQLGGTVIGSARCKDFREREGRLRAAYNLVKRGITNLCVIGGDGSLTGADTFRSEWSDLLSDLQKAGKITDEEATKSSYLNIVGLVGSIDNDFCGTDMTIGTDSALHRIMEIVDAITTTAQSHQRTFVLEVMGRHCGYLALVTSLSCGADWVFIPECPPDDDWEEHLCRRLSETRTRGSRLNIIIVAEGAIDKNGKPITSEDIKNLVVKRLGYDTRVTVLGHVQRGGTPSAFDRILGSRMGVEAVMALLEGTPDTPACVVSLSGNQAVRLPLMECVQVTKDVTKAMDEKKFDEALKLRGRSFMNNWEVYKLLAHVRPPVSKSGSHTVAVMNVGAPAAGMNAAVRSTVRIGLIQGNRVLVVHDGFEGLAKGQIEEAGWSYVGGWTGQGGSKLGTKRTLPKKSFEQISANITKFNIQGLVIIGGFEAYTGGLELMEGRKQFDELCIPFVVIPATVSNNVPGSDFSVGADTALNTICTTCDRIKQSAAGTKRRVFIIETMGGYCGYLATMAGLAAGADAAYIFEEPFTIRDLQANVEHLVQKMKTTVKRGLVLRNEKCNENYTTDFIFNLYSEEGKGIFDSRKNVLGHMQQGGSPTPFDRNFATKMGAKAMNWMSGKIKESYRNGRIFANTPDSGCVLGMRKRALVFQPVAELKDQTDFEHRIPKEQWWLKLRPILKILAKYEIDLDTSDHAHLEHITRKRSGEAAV

[2] = target: T2, recombinant PFKL (Homo sapiens, UniProt P17858); assay: PFKL enzymatic activity inhibition; format: biochemical
T2 sequence (P17858 2-780): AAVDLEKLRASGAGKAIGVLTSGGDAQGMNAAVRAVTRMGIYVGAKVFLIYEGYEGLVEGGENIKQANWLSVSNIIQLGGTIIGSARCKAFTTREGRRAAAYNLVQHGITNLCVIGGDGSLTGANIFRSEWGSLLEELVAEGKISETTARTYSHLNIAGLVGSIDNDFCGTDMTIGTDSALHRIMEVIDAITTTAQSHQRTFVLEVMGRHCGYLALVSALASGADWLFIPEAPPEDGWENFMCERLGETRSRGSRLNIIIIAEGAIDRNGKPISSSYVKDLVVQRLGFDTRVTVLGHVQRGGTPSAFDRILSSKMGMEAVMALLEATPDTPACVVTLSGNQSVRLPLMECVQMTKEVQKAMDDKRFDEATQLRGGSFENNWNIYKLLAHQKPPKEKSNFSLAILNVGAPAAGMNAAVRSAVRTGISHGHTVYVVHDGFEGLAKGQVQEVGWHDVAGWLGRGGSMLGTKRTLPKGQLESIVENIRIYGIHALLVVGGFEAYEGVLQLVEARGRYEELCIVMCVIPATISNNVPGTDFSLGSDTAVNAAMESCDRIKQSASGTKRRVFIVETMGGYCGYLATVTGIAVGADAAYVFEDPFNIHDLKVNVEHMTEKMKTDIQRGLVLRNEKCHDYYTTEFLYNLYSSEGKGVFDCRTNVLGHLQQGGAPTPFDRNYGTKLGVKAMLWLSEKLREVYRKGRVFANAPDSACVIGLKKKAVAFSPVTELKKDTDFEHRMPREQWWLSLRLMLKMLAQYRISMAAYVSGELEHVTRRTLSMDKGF

SMILES | IC50 [1] | IC50 [2]
CC1=C(O)C(=O)C=C2C1=CC=C1[C@@]2(C)CC[C@@]2(C)[C@@H]3C[C@](C)(C(=O)O)CC[C@]3(C)CC[C@]12C [celastrol] | 349 nM | 916 ± 35.7 nM
C#CCNC(=O)[C@]1(C)CC[C@]2(C)CC[C@]3(C)C4=CC=C5C(=CC(=O)C(O)=C5C)[C@]4(C)CC[C@@]3(C)[C@@H]2C1 [1-85] | 507 nM | 
O=C(c1cccs1)c1no[n+]([O-])c1C(=O)c1cccs1 [3-79] | 292 ± 20.8 nM | 
